From the NIST ThermoML archive (doi:10.1021/je200825j)

Conditions: Liquid mixture 1, Drop weight

CCCCCCCCCC [decane] + O
Conditions	interfacial tension [mN/m]
297.85 K, 110 kPa	51.96
323.35 K, 180 kPa	47.78
323.35 K, 22250 kPa	48.88
323.35 K, 39800 kPa	49.11
343.45 K, 150 kPa	46.28
343.45 K, 22850 kPa	47.68
343.45 K, 49020 kPa	48.39
374.25 K, 200 kPa	42.87
374.25 K, 23000 kPa	44.13
374.25 K, 47150 kPa	45.21
403.05 K, 400 kPa	39.59
403.05 K, 24500 kPa	40.33
403.05 K, 48000 kPa	40.9
442.85 K, 1150 kPa	32.36
442.85 K, 46400 kPa	36.89
